From patent US20260158023A1, “APOMORPHINE FOR TREATING OR IMPROVING POST-TRAUMATIC STRESS DISORDER” (priority 2024, published 2026)

Experiments:
[1] = tested on: one-time persistent stress post-traumatic stress model; test: stimulus identification fear conditioning experiment in one-time persistent stress model; assay type: in vivo, mice; conditions: for fear response to safety stimuli: one-time persistent stress model; for CS-freezing: one week after one-time persistent stress
Procedure: (§1) C57BL/6 mice were stressed by restricting movement for 2 hours (restraint stress), and one week later, two sounds were simultaneously applied: one with sound-only (safety stimuli) and the other with sound paired with electrical stimulation (fear stimuli). The next day, generalization, the freezing level to the safety stimulus (CS-), which is one of the indicators of post-traumatic stress disorder, was measured through fear responses to the two sounds (stimulus identification fear conditioning experiment).
(§2) In order to strengthen the fear response to safety stimuli, a one-time persistent stress was introduced to apply stronger stress. The one-time persistent stress consists of the existing 2-hour restraint stress, 10-minute forced swim test, and 5-minute ether anesthesia.
We observed the fear response in a stimulus identification fear conditioning experiment when apomorphine (1 ug/kg, 3 ug/kg) was administered one week after a one-time persistent stress, which is a more powerful post-traumatic stress model.
In order to compare the effect of apomorphine with that of the existing treatment, paroxetine, a stimulus identification fear conditioning experiment was conducted after stress was applied under the same conditions.

[2] = tested on: mice lacking drd4 receptors (drd4 KO); test: stimulus identification fear conditioning experiment in one-time persistent stress model, mice lacking drd4 receptors (drd4 KO); assay type: in vivo; conditions: as in Example 2.3
[3] = tested on: one-time persistent stress post-traumatic stress model; test: elevated plus maze test in one-time persistent stress model; assay type: in vivo, mice; conditions: after apomorphine administration
normal mice (drd4 WT) = test: stimulus identification fear conditioning experiment in one-time persistent stress model, normal mice (drd4 WT); assay type: in vivo; conditions: as in Example 2.3
[4] = tested on: restraint stress post-traumatic stress model (C57BL/6 mice); test: stimulus identification fear conditioning experiment in restraint stress model of post-traumatic stress disorder; assay type: in vivo; conditions: administered 30 minutes before the fear test
Procedure: as §1
To confirm the effect of apomorphine on the post-traumatic stress model according to concentration, apomorphine of different concentrations was administered 30 minutes before the fear test.

[5] = tested on: one-time persistent stress post-traumatic stress model; test: open field test in one-time persistent stress model; assay type: in vivo, mice; conditions: after apomorphine administration
Text: as §2
The level of anxiety symptoms can be determined through the time spent in the center in the open field test.

Compound | fear response to safety stimuli ([1]; 5 ug/kg) | fear response to safety stimuli ([1]; all concentrations: 150 ug/kg, 300 ug/kg and 500 ug/kg) | fear response between apomorphine administration and vehicle administration [2] | CS-freezing ([1]; 1 ug/kg) | CS-freezing ([1]; 3 ug/kg) | time spent in the open arm in the elevated plus maze test [3] | fear response compared to vehicle administration (normal mice (drd4 WT)) | CS-freezing (freezing level to the safety stimulus) ([4]; 1 ug/kg) | CS-freezing (freezing level to the safety stimulus) ([4]; 3 ug/kg) | mean distance in the open field test (overall walking function) [5] | time spent in the center in the open field test [5]
Fc1ccc([C@@H]2CCNC[C@H]2COc2ccc3c(c2)OCO3)cc1 [paroxetine] | no significant difference | reduced | – | – | – | – | – | – | – | – | –
CN1CCc2cccc3c2[C@H]1Cc1ccc(O)c(O)c1-3 [apomorphine, Apomorphine] | – | – | no difference | decreased | did not change | significantly increased | decreased | decreased | did not change | no difference | significantly increased
